{"source": "patent US20250332141A1", "about": "“A PHARMACEUTICAL COMPOSITION COMPRISING AN INHIBITOR OF GLUTAMINE SYNTHETASE ENZYME TO COMBAT ARTEMISININ RESISTANCE IN MALARIA” (Institute of Life Sciences, priority 2022, published 2025)", "key": {"[1]": {"tested_on": "ART-resistant PfCam3.I^R539T strain", "assay": "Ring-stage survival assay (RSA) with ART-resistant strain", "format": "cell-based, Plasmodium falciparum", "experimental": "PfCam3.I^R539T strain was maintained under standard conditions. When the parasitemia reached around 2% with predominant ring stages, the cultures were subjected to two rounds of tight synchronization within a span of 3 h in the previous cycle, followed by one additional synchronization in the subsequent cycle when they are in early rings. […] The medium change was carried out at 48 and 72 h, and after 96 h, the culture parasitemia was examined by Giemsa-stained smears and flow cytometry. For growth assessment by ^3H-hypoxanthine uptake, the label was added at 72 h and the cells were harvested at 96 h. The experiments were carried out independently in RPMI^-gln and RPMI^Pgln medium."}, "Pf protein synthesis": {"tested_on": "Pf protein synthesis", "assay": "In vitro metabolic protein labelling with 35S-Methionine and Cysteine", "format": "cell-based", "conditions": "Plasmodium falciparum, 12 h treatment; for inhibition at 50 µM / inhibition at 250 µM: RPMI^-gln medium; for inhibition at 1000 µM: 1 mM, RPMI^Pgln medium", "experimental": "After 9 h of radiolabelling, parasites were isolated by saponin lysis, resuspended in 50 mM Tris pH 8.0 containing 100 mM NaCl, 2% glycerol and 0.1% Triton X-100, and lysed by sonication. The lysates were resolved on 10% SDS-PAGE gel and phosphorimager scanning was carried out to examine the radiolabelling of proteins using Amersham Typhoon 5 Biomolecular Imager. In parallel, 10 μl of the lysates were spotted on Whatman filter paper grade I, dried and washed subsequently with hot and cold 10% (w/v) trichloroacetic acid to remove free amino acids and charged-tRNAs, followed by diethyl ether to remove lipids. The filter papers were then placed in Ultima Gold XR scintillation cocktail and the radioactive counts were measured using MicroBeta^2 Microplate Counters. All these experiments were performed with identical parasitemia and hematocrit between the untreated and treated groups by equally splitting the infected cultures."}, "Pf clinical isolates": {"tested_on": "Pf clinical isolates", "assay": "Inhibition studies with Pf clinical samples (3H-hypoxanthine uptake)", "format": "cell-based, Plasmodium falciparum", "conditions": "in vitro cultures without or with glutamine; n=7 clinical isolates", "method": "The collection of clinical samples was carried out by withdrawing blood from febrile patients. Pf infections were confirmed by examining Giemsa-stained thick and thin blood smears under light microscope, and by performing rapid diagnostic test and PCR for 18S rRNA. The infected blood was collected in heparinized vacutainers and the subsequent procedures were carried out in BSL-2 facility under sterile conditions. […] The packed cells were then resuspended in the same medium and the hematocrit was adjusted to 5%. The cultures were treated with different concentrations of MSO/PPT and ^3H-hypoxanthine addition was carried out after 3 h of MSO/PPT addition to assess the parasite growth. The cultures were incubated following the standard conditions of Pf maintenance and the experiments were performed for each clinical isolate in RPMI^-gln as well as in RPMI^Pgln. All these experiments were typically carried out in a final culture volume of 1.2 ml for the respective concentrations of MSO or PPT. Parasite growth assessment was also verified by examining the Giemsa-stained smears."}, "Pf parasites": {"tested_on": "Pf parasites", "conditions": "RPMI^-gln medium; 50 and 250 μM MSO, 12 h", "experimental": "Parasite pellets were then extracted with 10 volumes of 50% methanol in water (v/v), followed by lyophilisation and solubilizing the lyophilized extracts with 50 μl of water. […] For LC-MS/MS, the parasite extracts were derivatized with 6-aminoquinolyl-N-hydroxysuccinimidyl carbamate (AQC), cleaned up with SPE and dried under vacuum, followed by reconstitution with 50 μl of 0.5% acetonitrile containing 0.1% formic acid. 10 μl of the sample was used for LC-MS/MS analysis carried out in Acquity C18 column (1.8 μm, 2.1 mm×100 mm) using Dionnex Ultimate3000 UHPLC system coupled with Q Exactive mass spectrometer (Thermo Fisher Scientific). Mobile phase consisted of Solvent A: 10 mM ammonium acetate containing 0.1% formic acid and solvent B: acetonitrile containing 0.1% formic acid. Mass spectrometry was performed under spray voltage of 4000/2500V with vaporizer temperature of 250° C., sheath gas and auxillary gas flow rate of 30 and 10 Arb, respectively. The acquisition was performed in Parallel Reaction Monitoring mode at 35000 resolution with a normalized collision energy of 25 eV. The calibration curves were prepared for the individual amino acids and the samples were spiked with internal standards containing deuterated amino acids."}, "[2]": {"tested_on": "Pf asexual stages (Pf3D7 cultures)", "assay": "MSO and PPT inhibition of in vitro growth of Pf cultures", "format": "cell-based, Plasmodium falciparum", "conditions": "for IC50: Plasmodium falciparum, read-out: IC50 for inhibiting Pf growth", "experimental": "The parasites were subcultured with fresh RBCs when the culture parasitemia reached around 2-5%. […] The isolated parasites were washed thoroughly with ice cold PBS for four times to remove the carry-over of proteins from RBC lysates. ART-resistant PfCam3.I^R539T strain was also maintained in a similar fashion. Giemsa-stained smears were routinely prepared to examine the parasite growth and parasitemia. Parasite growth assessment for experiments was carried out by Giemsa-stained smears, flow cytometry and ^3H-hypoxanthine uptake. […] The radioactive counts were measured using MicroBeta^2 Microplate Counters (PerkinElmer)."}, "[3]": {"tested_on": "eIF2α phosphorylation in Pf3D7 rings", "conditions": "250 μM for 6 h, RPMI^-gln medium", "experimental": "Pf3D7 cultures were subjected to two rounds of tight synchronization within a span of 3 h in the previous cycle, followed by one additional synchronization in the subsequent cycle immediately after RBC invasion."}, "[4]": {"biological_target": "T1, rPfGS (Plasmodium falciparum glutamine synthetase) (Plasmodium falciparum, UniProt C0H551)", "T1 sequence (C0H551 1-543)": "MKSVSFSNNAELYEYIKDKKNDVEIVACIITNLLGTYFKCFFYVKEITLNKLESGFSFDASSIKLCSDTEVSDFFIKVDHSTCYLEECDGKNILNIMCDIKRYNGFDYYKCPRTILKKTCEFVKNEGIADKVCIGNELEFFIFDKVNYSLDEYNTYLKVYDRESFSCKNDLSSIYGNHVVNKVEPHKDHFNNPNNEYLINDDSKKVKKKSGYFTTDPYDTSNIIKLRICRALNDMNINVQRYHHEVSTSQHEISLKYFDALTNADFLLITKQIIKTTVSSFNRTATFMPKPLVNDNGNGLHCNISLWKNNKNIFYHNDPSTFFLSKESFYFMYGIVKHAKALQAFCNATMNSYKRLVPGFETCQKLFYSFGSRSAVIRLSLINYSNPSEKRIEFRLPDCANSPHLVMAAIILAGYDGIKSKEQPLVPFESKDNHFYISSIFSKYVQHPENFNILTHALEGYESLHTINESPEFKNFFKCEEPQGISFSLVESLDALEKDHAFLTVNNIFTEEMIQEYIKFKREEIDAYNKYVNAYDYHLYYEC", "assay": "Recombinant PfGS enzyme assay (HPLC glutamine formation / Pi release) and inhibition", "format": "biochemical", "method": "(§1) Enzyme assays were carried out by performing HPLC analysis for glutamine formation as well as by quantifying the release of inorganic phosphate (Pi). The enzyme assays were carried out at 37° C. for 1 h in a total volume of 25 µl and the assay mixtures contained 50 mM Tris buffer pH 8.0 with 4 mM glutamate, 50 mM NaCl, 50 mM NH4Cl, 10 mM ATP and 50 mM MgCl2 and 0.5-1.0 μg of recombinant protein. The amino acids were extracted by vortexing the assay mixtures with 50 μl of water and 375 μl of acetonitrile, followed by incubation in ice for 30 min and centrifugation at 20,000 g for 20 min at 4° C. The supernatant was collected, lyophilized and dissolved in 50 μl of water. […] Mobile phase consisted of Solvent A: 10 mM Na2HPO4, and 10 mM Na2B4O7, pH 8.2 and solvent B: methanol: acetonitrile: water (45:45:10 v/v). […] For every molecule of glutamine formed, one molecule of ATP is hydrolysed to ADP and Pi. […] For Pi assays, the assay mixtures incubated at 37° C. for 1 h were diluted with water to 200 μl, followed by the addition of 30 μl of phosphate reagent of Phosphate Assay Kit (Abcam, ab65622). After vortexing, the absorbance was measured at 650 nm as per the manufacturer's protocol. Individual glutamate-and protein-omitted reactions were used as controls for all the assays."}, "[5]": {"substrate": "N", "assay": "Recombinant PfGS enzyme assay (HPLC glutamine formation / Pi release) and inhibition", "format": "biochemical, Plasmodium falciparum", "conditions": "other: Lineweaver-Burk plots; mean±SD, at least three different protein preparations", "method": "as §1"}, "[6]": {"substrate": "Nc1ncnc2c1ncn2[C@@H]1O[C@H](COP(=O)(O)OP(=O)(O)OP(=O)(O)O)[C@@H](O)[C@H]1O", "assay": "Recombinant PfGS enzyme assay (HPLC glutamine formation / Pi release) and inhibition", "format": "biochemical, Plasmodium falciparum", "conditions": "other: Lineweaver-Burk plots; mean±SD, at least three different protein preparations", "method": "as §1"}, "[7]": {"substrate": "N[C@@H](CCC(=O)O)C(=O)O", "assay": "Recombinant PfGS enzyme assay (HPLC glutamine formation / Pi release) and inhibition", "format": "biochemical, Plasmodium falciparum", "conditions": "other: Lineweaver-Burk plots; mean±SD, at least three different protein preparations", "method": "as §1"}}, "note": "Like-named read-outs stand apart in the source and are kept apart here."}
{"molecule": "CS(=N)(=O)CC[C@H](N)C(=O)O", "note": "(stereo partly drawn) [MSO, L-methionine sulfoximine]", "values": [{"measurement": "inhibition with respect to the untreated control", "setting": "[1]; MSO alone for 6 h, PfCam3.I^R539T rings", "result": "10-20%"}, {"measurement": "inhibition at 50 µM", "setting": "Pf protein synthesis", "result": "40 to 50", "unit": "%"}, {"measurement": "inhibition at 250 µM", "setting": "Pf protein synthesis", "result": "~80", "unit": "%"}, {"measurement": "inhibition at 1000 µM", "setting": "Pf protein synthesis", "result": "~50", "unit": "%"}, {"measurement": "growth of Pf clinical samples", "setting": "Pf clinical isolates", "result": "could inhibit the growth of Pf clinical samples to the extent that was observed for Pf3D7 strain"}, {"measurement": "free glutamine levels in treated Pf parasites with respect to untreated parasites", "setting": "Pf parasites", "result": "did not show a significant decrease"}, {"measurement": "reduction of free asparagine levels with respect to untreated control", "setting": "Pf parasites", "result": "1.5-2.0 fold"}, {"measurement": "IC50", "setting": "[2]", "result": "~30", "unit": "µM"}, {"measurement": "phosphorylation of eIF2α in Pf", "setting": "[3]", "result": "prominent phosphorylation"}]}
{"molecule": "CP(=O)(O)CCC(N)C(=O)O", "note": "(centres unmarked) [PPT, Phosphinothricin]", "values": [{"measurement": "inhibition at 50 µM", "setting": "Pf protein synthesis", "result": "40 to 50", "unit": "%"}, {"measurement": "inhibition at 250 µM", "setting": "Pf protein synthesis", "result": "~80", "unit": "%"}, {"measurement": "inhibition at 1000 µM", "setting": "Pf protein synthesis", "result": "~50", "unit": "%"}, {"measurement": "growth of Pf clinical samples", "setting": "Pf clinical isolates", "result": "could inhibit the growth of Pf clinical samples to the extent that was observed for Pf3D7 strain"}, {"measurement": "IC50", "setting": "[2]; RPMI medium lacking glutamine (RPMI^-gln)", "result": "~30", "unit": "µM"}, {"measurement": "IC50 in RPMI^Pgln relative to IC50 in RPMI^-gln", "setting": "[2]; RPMI medium containing physiological levels (0.5 mM) of glutamine (RPMI^Pgln)", "result": "~10", "unit": "times higher"}, {"measurement": "Ki", "setting": "[4]", "result": "2.31 ± 1.1", "unit": "µM"}]}
{"molecule": "C[C@@H]1CC[C@H]2[C@@H](C)C(=O)O[C@@H]3O[C@@]4(C)CC[C@@H]1[C@]32OO4", "note": "[ART, artemisinin]", "values": [{"measurement": "viable parasites after exposure in RSA", "setting": "[1]; 700 nM exposure for 6 h, PfCam3.I^R539T cultures, after 72 h", "result": "resulted in viable parasites"}]}
{"molecule": "rPfGS (Plasmodium falciparum glutamine synthetase) (Plasmodium falciparum 3D7) (protein) MKSVSFSNNAELYEYIKDKKNDVEIVACIITNLLGTYFKCFFYVKEITLNKLESGFSFDASSIKLCSDTEVSDFFIKVDHSTCYLEECDGKNILNIMCDIKRYNGFDYYKCPRTILKKTCEFVKNEGIADKVCIGNELEFFIFDKVNYSLDEYNTYLKVYDRESFSCKNDLSSIYGNHVVNKVEPHKDHFNNPNNEYLINDDSKKVKKKSGYFTTDPYDTSNIIKLRICRALNDMNINVQRYHHEVSTSQHEISLKYFDALTNADFLLITKQIIKTTVSSFNRTATFMPKPLVNDNGNGLHCNISLWKNNKNIFYHNDPSTFFLSKESFYFMYGIVKHAKALQAFCNATMNSYKRLVPGFETCQKLFYSFGSRSAVIRLSLINYSNPSEKRIEFRLPDCANSPHLVMAAIILAGYDGIKSKEQPLVPFESKDNHFYISSIFSKYVQHPENFNILTHALEGYESLHTINESPEFKNFFKCEEPQGISFSLVESLDALEKDHAFLTVNNIFTEEMIQEYIKFKREEIDAYNKYVNAYDYHLYYEC", "values": [{"measurement": "Km", "setting": "[5]", "result": "530 ± 180", "unit": "µM"}, {"measurement": "Km", "setting": "[6]", "result": "750 ± 140", "unit": "µM"}, {"measurement": "Km", "setting": "[7]", "result": "730 ± 210", "unit": "µM"}]}
